Laboratory results taken from US7662851B2, “Use of specific cyklolignans” (Axelar AB, priority 2001, dated 2010).
Like-named read-outs stand apart in the source and are kept apart here.

Legend:
[1] = test system: K562/Vcr30 chronic myeloid leukemia cells; experiment: Leukemia cell viability, K562/Vcr30; type: cell-based, human; conditions: K562/Vcr30, 72 h
Procedure: (§1) The human chronic myeloid leukemia K562/S and K562/Vcr30 lines and the acute myeloid leukemia cell lines HL60/0 and HL60/Nov were obtained from ATCC. The K562/S and […] are wild type (non-resistant) cells, whereas K562/Vcr30 and HL60/Nov are cytostatic-resistant sublines. All leukemia cell lines were cultured in RPMI 1640 medium supplemented with 10% fetal bovine serum and with 2 mM L-glutamine, benzylpenicillin (100 U/ml) and streptomycin (100 μg/ml). The cells were grown in tissue culture flasks maintained at 95% air/5% CO2 atmosphere at 37° C. in a humidified incubator. For the experiments cells were cultured in 60-mm plastic dishes or 96-well plastic plates.
(§2) Cell proliferation kit II (Roche Inc.) is based on colorimetric change of the yellow tetrazolium salt XTT in orange formazan dye by the respiratory chain of viable cells (Roehm, N W, et al., J Immunol Methods 142:257-265, 1991). Cells seeded at a concentration of 5000/well in 100 μl medium in a 96-well plate were treated with different drugs in the given concentration. After 24 or 48 h the cells were incubated, according to the manufacturer's protocol, with XTT labelling mixture. After 4 h the formazan dye is quantified using a scanning multiwell spectrophotometer with a 495-nm filter. The absorbance is directly correlated with the number of viable cells. The standard absorbance curve was drawn by means of untreated cells seeded at a concentration of from 1000 to 10 000 cells/well with an increasing rate of 1000 cells/well. All standards and experiments were performed in triplicates.
(§3) Cells of said cell lines were seeded in 96-well plates (25 000 cells/well, medium volume per well was 100 μl), in […] medium supplemented with fetal calf serum. After 24 h picropodophyllin and the derivatives alpha-apopicropodophyllin and beta-apopicropodo-phyllin were added at different concentrations and the cells were incubated for 72 h. Cell viability was then assayed (see above). […] The results are based on 3 different experiments.
(§4) The leukemia cell lines K562/S, […], HL60/0 and HL60/Nov were cultured in 96-well plates as described in Experiment 7. After 24 h, the cells were treated for 72 h with different concentrations of the anti-cancer agent vincristine, with and without co-incubation with 0.05 μM picropodophyllin. […] Cell viability was then assayed. IC50 values for each inhibitor and cell line are shown below (Table 8). The results are based on 3 different experiments.

[2] = test system: HL60/0 acute myeloid leukemia cells; experiment: Leukemia cell viability, HL60/0; type: cell-based, human
Procedure: as §1, §2, §3, §4

[3] = test system: HL60/Nov acute myeloid leukemia cells; experiment: Leukemia cell viability, HL60/Nov; type: cell-based, human
Procedure: as §1, §2, §3, §4

[4] = test system: K562/S chronic myeloid leukemia cells; experiment: Leukemia cell viability, K562/S; type: cell-based, human; conditions: 72 h
Procedure: as §1, §2, §3, §4

[5] = target: IGF-1R (Homo sapiens, UniProt P08069); experiment: Tyrosine phosphorylation of IGF-1R in intact FM55 melanoma cells; type: cell-based; design: endogenous in cells; conditions: for Level of IGF-1R phosphorylation in intact cells: FM55 melanoma cells, 1 h, means of 3 experiments
Sequence of IGF-1R (P08069 31-1367): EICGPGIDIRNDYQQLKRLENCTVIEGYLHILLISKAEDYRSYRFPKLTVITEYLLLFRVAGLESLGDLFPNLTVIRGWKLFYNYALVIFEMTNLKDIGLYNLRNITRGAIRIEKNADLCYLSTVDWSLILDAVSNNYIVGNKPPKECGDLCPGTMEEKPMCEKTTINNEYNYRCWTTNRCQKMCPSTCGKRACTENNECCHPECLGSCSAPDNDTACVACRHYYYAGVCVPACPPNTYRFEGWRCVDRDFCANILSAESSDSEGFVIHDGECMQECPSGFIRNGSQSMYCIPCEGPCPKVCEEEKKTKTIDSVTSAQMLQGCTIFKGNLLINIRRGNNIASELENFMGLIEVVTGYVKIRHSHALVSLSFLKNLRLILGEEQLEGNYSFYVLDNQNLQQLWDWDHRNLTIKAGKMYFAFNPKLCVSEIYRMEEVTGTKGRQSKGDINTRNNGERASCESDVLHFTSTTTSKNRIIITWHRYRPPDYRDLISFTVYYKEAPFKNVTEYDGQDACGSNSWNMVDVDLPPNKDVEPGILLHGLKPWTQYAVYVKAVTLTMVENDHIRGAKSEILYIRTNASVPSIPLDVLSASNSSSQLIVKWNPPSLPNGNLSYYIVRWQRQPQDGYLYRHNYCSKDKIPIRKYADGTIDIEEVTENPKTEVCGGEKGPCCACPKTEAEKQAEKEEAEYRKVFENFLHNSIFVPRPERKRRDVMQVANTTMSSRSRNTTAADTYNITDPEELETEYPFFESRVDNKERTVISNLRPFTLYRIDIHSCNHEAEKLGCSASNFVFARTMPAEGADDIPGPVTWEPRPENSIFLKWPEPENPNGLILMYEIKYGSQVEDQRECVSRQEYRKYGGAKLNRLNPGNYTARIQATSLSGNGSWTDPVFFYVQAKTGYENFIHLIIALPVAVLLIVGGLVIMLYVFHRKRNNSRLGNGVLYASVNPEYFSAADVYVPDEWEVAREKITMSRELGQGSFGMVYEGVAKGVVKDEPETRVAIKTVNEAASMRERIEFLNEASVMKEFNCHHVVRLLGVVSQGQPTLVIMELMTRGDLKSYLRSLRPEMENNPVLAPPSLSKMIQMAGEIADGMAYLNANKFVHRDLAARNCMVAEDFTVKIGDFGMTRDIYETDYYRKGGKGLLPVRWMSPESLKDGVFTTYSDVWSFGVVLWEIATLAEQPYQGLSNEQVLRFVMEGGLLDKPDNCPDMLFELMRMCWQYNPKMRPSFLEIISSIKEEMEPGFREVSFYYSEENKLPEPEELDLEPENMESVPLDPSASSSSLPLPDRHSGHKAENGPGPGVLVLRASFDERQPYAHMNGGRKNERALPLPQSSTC
Procedure: Cells were cultured to subconfluency in 6-cm plates, and then fresh medium containing 10% FBS and the desired compounds were added for 1 h. The cells were then lyzed and subjected to immunoprecipitation using specific antibodies. Immunoprecipitates were resolved by sodium dodecyl sulphate polyacrylamide gel electrophoresis (SDS-PAGE) and transferred to nitro-cellulose membranes and incubated with anti-phosphotyrosine antibody. Antibodies to actin (in cell extract) or IGF-1R beta subunit were used as loading controls. After detection the films were scanned for quantification.
The isolated cells were then lyzed in 10 ml ice-cold PBSTDS containing protease inhibitors (Carlberg, M., et al., J Biol Chem 271:17453-17462, 1996). 50 μl protein A or G agarose was added in 1 ml sample and incubated for 15 min at 4° C. on an orbital shaker. After centrifugation for 10 min at 10,000 r/min at 4° C. the supernatant was saved. The protein content was determined by a dye-binding assay with a reagent purchased from Bio-Rad. Bovine serum albumin was used as a standard. 15 μl Protein G Plus agarose and 5 μl anti-IGF-1R were added. After a 3 h incubation at 4° C. on an orbital shaker the precipitate was collected by pulse centrifugation in a micro centrifuge at 14,000×g for 10 s. The supernatant was discarded and the pellet was washed 3 times with PBSTDS.
Protein samples were solved in a 2×-sample buffer containing Laemmli buffer and 0.5% […] and boiled for 5 min at 96° C. Samples were separated by SDS-PAGE with a 4% stacking gel and 7.5% separation gel. Molecular weight markers (Bio Rad, Sweden) were run simultaneously in all experiments.
Following SDS-PAGE the proteins were transferred overnight to nitro-cellulose membranes (Hybond, Amersham, UK) and then blocked for 1 h at room temperature in a solution of 4% skimmed milk powder and 0.02% Tween 20 in PBS, pH 7.5. Incubations with the primary antibodies were performed for 1 h at room temperature, followed by 3 washes with PBS with Tween and incubation with the second antibody for 1 h room temperature. After another 3 washes the membranes were incubated with Streptavidin-labelled horseradish peroxidase for 30 min and then detected using Amersham ECL system (Amersham, UK). The films were scanned by Fluor-S (BioRad).
FM55 melanoma cells were seeded in 6-cm dishes, at a concentration of 10,000 cells/cm^2 in Minimal Essential Medium supplemented with 10% fetal calf serum (FCS). When the cells reached a density of 65,000 cells/cm^2 in the dishes, they were treated for 1 h with 0.05 μM podophyllotoxin, deoxypodophyllotoxin, picropodophyllin, deoxypicropodophyllin, 4′-demethyl-7-(4,6-O-ethylidene-β-D-glucopyranosyl)epipodophyllotoxin (etoposide) and podophyllotoxin-4,6-O-benzylidene-β-D-glucopyranoside (pf-4,6-O). Etoposide and pf-4,6-O were also administered at 15 μM. The cells were then harvested for assay and quantification of IGF-1R phosphorylation as described in Experiment 1. The values shown in Table 1 represent means of 3 experiments.
FM55 melanoma cells were cultured in the same way as described in Experiment 1. When reaching a density of 65,000 cells/cm^2 in the dishes, they were treated for 1 h with 0 (control) and 0.05 μM of picropodophyllin and podophyllotoxin, respectively. The cells were then isolated and subjected to immunoprecipitation of the IGF-1R, fibroblast growth factor receptor (FGFR), platelet-derived growth factor receptor (PDGFR), epidermal growth factor receptor (EGFR), insulin receptor (IR) and insulin substrate-1 (IRS-1) using antibodies to respective molecules. IRS-1 is a substrate of IGF-1R, and therefore its phosphorylation is dependent on phosphorylated IGF-1R. Gelelectrophoresis, Western blotting and quantification of the different signals were performed as described above.

[6] = Systemic toxicity, daily intraperitoneal injection in nude mice; conditions: for Signs of disease: up to 5 days
Procedure: Four to five-week old pathogen-free nude mice (nu/nu) were used and housed within plastic isolators in a sterile facility. […] Experimental treatments with podophyllotoxin, deoxypodophyllotoxin or picropodophyllin were performed by daily intraperitoneal injections of the compound in 100 μl volume of solvent, composed of a mixture of DMSO and physiological saline (8:2). Control mice were treated with the solvent. 3-6 animals were treated in each group. Animals were monitored three times a week for signs of disease and tumor growth. Tumor mass was estimated using the formula (d^2×D)/2, where d and D represent the small and large diameters of the tumor, respectively. The mice were carefully observed for presence of side effects and were sacrificed at the end of the experiments for histological analysis of the lesions. All experiments were performed according to the ethical guidelines for laboratory animal use, provided by institutional ethical committee.
In the next experiment we analyzed systemic effects of the drugs by injecting 100 μl intraperitoneally of each compound daily over 5 days. Two doses were injected (7 or 28 mg/kg/d) and 3-6 mice were used for each drug and dose. The mice were checked carefully daily for signs of discomfort, diseases and weight loss.

[7] = Local toxicity, subcutaneous osmotic pumps in nude mice; type: in vivo; conditions: subcutaneous osmotic pump loaded with 0.25 mg, 7 days
Procedure: Control mice were treated with the solvent. 3-6 animals were treated in each group.
The first set of experiments was carried out to investigate possible local and systemic toxic effects of podophyllotoxin, deoxypodophyllotoxin and picropodophyllin on nude mice. In the first experiment osmotic pumps loaded with either drug-free solvent, podophyllotoxin (0.25 mg), deoxypodophyllotoxin (0.25 mg) or picropodophyllin (0.25 mg) were implanted subcutaneously in the flank region. The drugs are delivered subcutaneously with a constant flow of 0.6 μl/h over 7 days. The volume of the pumps was 100 μl. After 7 days the mice were killed and the skin and subcutaneous tissue adjacent to the outlet of the pumps were analyzed and scored for tissue reactions by an experienced pathologist. There were 3 mice in each group.

[8] = read-out: IC50 for cell viability
[9] = HL60, 72 h, read-out: IC50 for cell viability
[10] = 72 h, read-out: IC50 for cell viability
[11] = Homo sapiens, read-out: IC50 for cell viability, vincristine alone

Question: For `COc1cc([C@@H]2c3cc4c(cc3C=C3COC(=O)[C@H]32)OCO4)cc(OC)c1OC` [Alpha-apopicro, α-apopicropodophyllin], which IC50 [1, 8] is on record?
Answer: Its IC50 is 50 nM.

Question: What about the IC50 [2, 9] of the same compound?
Answer: The IC50 was 20 nM.

Question: And the IC50 [3, 10]?
Answer: Its IC50 is 20 nM.

Question: And the IC50 [4, 8]?
Answer: The IC50 was 40 nM.

Question: Which “Level of IGF-1R phosphorylation in intact cells” value (shortened to “Level of IGF-1R phosphorylation”) ([5]; 0.05 μM) does the source give for `COc1cc([C@@H]2c3cc4c(cc3C[C@H]3COC(=O)[C@H]32)OCO4)cc(OC)c1OC` [Deoxypicropodophyllin, deoxypicropodophyllin] here?
Answer: The value was 5 % OD.

Question: For `COc1cc([C@@H]2c3cc4c(cc3C[C@H]3COC(=O)[C@@H]32)OCO4)cc(OC)c1OC` [Deoxypodophyllotoxin, deoxypodophyllotoxin], which “Level of IGF-1R phosphorylation” value ([5]; 0.05 μM) is on record?
Answer: The value was 2 % OD.

Question: What about the “Surviving mice/Investigated mice” value ([6]; 7 mg/kg/d i.p., 1 d) of the same compound?
Answer: The value was 3/3.

Question: And the “Surviving mice/Investigated mice” value ([6]; 7 mg/kg/d i.p., 2 d)?
Answer: The value was 3/3.

Question: And the “Surviving mice/Investigated mice” value ([6]; 7 mg/kg/d i.p., 3 d)?
Answer: Its value is 3/3.

Question: What about the “Surviving mice/Investigated mice” value ([6]; 7 mg/kg/d i.p., 4 d) of the same compound?
Answer: The value was 3/3.

Question: What about the “Surviving mice/Investigated mice” value ([6]; 7 mg/kg/d i.p., 5 d) of the same compound?
Answer: Its value is 3/3.

Question: And the “Surviving mice/Investigated mice” value ([6]; 28 mg/kg/d i.p., 1 d)?
Answer: Its value is 6/6.

Question: And the “Surviving mice/Investigated mice” value ([6]; 28 mg/kg/d i.p., 2 d)?
Answer: Its value is 4/6.

Question: What about the “Surviving mice/Investigated mice” value ([6]; 28 mg/kg/d i.p., 3 d) of the same compound?
Answer: The value was 0/6.

Question: What about the “Signs of disease” value ([6]; high dose (28 mg/kg/d) i.p. daily) of the same compound?
Answer: Its value is “serious disease or death”.

Question: And the “Signs of disease” value ([6]; low dose (7 mg/kg/d) i.p. daily)?
Answer: The value was “serious signs of disease”.

Question: What about the “Local tissue reactions” value [7] of the same compound?
Answer: The value was “light damages”.

Question: What does the source list for `COc1cc([C@@H]2c3cc4c(cc3[C@@H](O[C@@H]3O[C@@H]5CO[C@@H](C)O[C@H]5[C@H](O)[C@H]3O)[C@H]3COC(=O)[C@H]23)OCO4)cc(OC)c1O` [Etoposide, 4′-demethyl-7-(4,6-O-ethylidene-β-D-glucopyranosyl)epipodophyllotoxin]?
Answer: Level of IGF-1R phosphorylation in intact cells ([5]; 0.05 μM): 102 % OD; Level of IGF-1R phosphorylation in intact cells ([5]; 15 μM): 105 % OD

Question: With `COc1cc(C2c3cc4c(cc3C(OC3OC5COC(c6ccccc6)OC5C(O)C3O)C3COC(=O)C23)OCO4)cc(OC)c1OC` [Pf-4,6-O, podophyllotoxin-4,6-O-benzylidene-β-D-glucopyranoside] as the compound, how does the “Level of IGF-1R phosphorylation” value ([5]; 0.05 μM) read?
Answer: Its value is 100 % OD.

Question: What about the “Level of IGF-1R phosphorylation” value ([5]; 15 μM) of the same compound?
Answer: Its value is 102 % OD.

Question: And the “Effect on IGF-1R” value ([5]; stated in description)?
Answer: The value was “completely disappeared”.

Question: What does the source list for `CC[C@]1(O)C[C@H]2CN(CCc3c([nH]c4ccccc34)[C@@](C(=O)OC)(c3cc4c(cc3OC)N(C=O)[C@H]3[C@@](O)(C(=O)OC)[C@H](OC(C)=O)[C@]5(CC)C=CCN6CC[C@]43[C@@H]65)C2)C1` [Vincristine, vincristine, reference compound]?
Answer: IC50 [1, 11]: 5 nM; IC50 ([2]; Homo sapiens, HL-60, HL60/0, 72 h, read-out: IC50 for cell viability, vincristine alone): 0.8 nM; IC50 ([3]; Homo sapiens, HL-60, 72 h, read-out: IC50 for cell viability, vincristine alone): 1.2 nM; IC50 [4, 11]: 1.6 nM

Question: Which results are given for β-apopicropodophyllin [Beta-apopicro]?
Answer: IC50 [1, 8]: 10 nM; IC50 [2, 9]: 10 nM; IC50 [3, 10]: 10 nM; IC50 [4, 8]: 10 nM
